According to patent US10105367B2, “Therapeutic thiophene-, furan-, and pyridine-fused azolopyrimidin-5-(6h)-ones” (Dart Neuroscience (Cayman) Ltd., priority 2012, dated 2018):

The compounds below were run against human PDE1B (Homo sapiens (Human), UniProt Q01064) (assay: PDE1B inhibitory assay (IMAP TR-FRET)). Conditions: PDE1B pIC50, negative log of half-maximal molar inhibitory concentration; 200 nM FAM-cAMP, Calmodulin, CaCl2.

Structure (SMILES) | IC50
O=c1n(Cc2ccccc2Cl)c2sccc2c2ncnn12 [Example 1, 6-(2-Chlorobenzyl)thieno[3,2-e][1,2,4]triazolo[1,5-c]pyrimidin-5(6H)-one] | 1000 to 10000 nM
O=c1n(Cc2cccc(Cl)c2)c2sccc2c2ncnn12 [Example 2] | 1000 to 10000 nM
Cc1csc2c1c1ncnn1c(=O)n2Cc1ccc(Cl)cc1 [Example 3] | 100 to 1000 nM
O=c1n(Cc2ccc(Cl)cc2)c2sccc2c2ncnn12 [Example 5] | 100 to 1000 nM
Cc1csc2c1c1ncnn1c(=O)n2Cc1ccccc1 [Example 6] | 100 to 1000 nM
O=c1n(Cc2ccccc2Cl)c2sc(Cc3ccccc3)cc2c2ncnn12 [Example 8] | 100 to 1000 nM
O=c1n(Cc2cccc(Cl)c2)c2sc(Cc3ccccc3)cc2c2ncnn12 [Example 9] | 100 to 1000 nM
Cc1csc2c1c1ncnn1c(=O)n2Cc1ccccc1Cl [Example 10] | 1000 to 10000 nM
Cc1csc2c1c1ncnn1c(=O)n2Cc1cccc(Cl)c1 [Example 11] | 100 to 1000 nM
Cc1cc2c(s1)n(Cc1ccccc1)c(=O)n1ncnc21 [Example 12] | 1000 to 10000 nM
Cc1cc2c(s1)n(Cc1ccccc1Cl)c(=O)n1ncnc21 [Example 13] | 1000 to 10000 nM
Cc1cc2c(s1)n(Cc1ccc(Cl)cc1)c(=O)n1ncnc21 [Example 15] | 100 to 1000 nM
Cc1cc2c(s1)n(Cc1cccc(Cl)c1)c(=O)n1ncnc21 [Example 16] | 1000 to 10000 nM
O=c1n(Cc2ccccc2)c2sc(Cc3ccccc3)cc2c2ncnn12 [Example 17] | 100 to 1000 nM
O=c1n(Cc2ccc(-c3ccccc3)cc2)c2sc(Cc3ccccc3)cc2c2ncnn12 [Example 18] | 1000 to 10000 nM
CC(C)CCc1cc2c(s1)n(Cc1ccccc1Cl)c(=O)n1ncnc21 [Example 19] | 1000 to 10000 nM
CC(C)CCc1cc2c(s1)n(Cc1cccc(Cl)c1)c(=O)n1ncnc21 [Example 20] | 1000 to 10000 nM
O=c1n(Cc2ccc(Cl)cc2)c2sc(Cc3ccccc3)cc2c2ncnn12 [Example 22] | 100 to 1000 nM
CC(C)CCc1cc2c(s1)n(Cc1ccc(Cl)cc1)c(=O)n1ncnc21 [Example 23] | 100 to 1000 nM
O=c1n(Cc2ccccc2)c2sccc2c2ncnn12 [Example 24] | 1000 to 10000 nM
CC(C)CCc1cc2c(s1)n(Cc1ccccc1)c(=O)n1ncnc21 [Example 25] | 100 to 1000 nM
Cc1sc2c(c1C)c1ncnn1c(=O)n2Cc1ccc(Cl)cc1 [Example 26] | 100 to 1000 nM
COc1ccc(Cn2c(=O)n3ncnc3c3ccsc32)cc1 [Example 27] | 100 to 1000 nM
COc1ccc(Cn2c(=O)n3ncnc3c3c(C)csc32)cc1 [Example 28] | 100 to 1000 nM
COc1ccc(Cn2c(=O)n3ncnc3c3cc(CN(C)C)sc32)cc1 [Example 30] | 100 to 1000 nM
COc1ccc(Cn2c(=O)n3ncnc3c3cc(CN4CCN(C)CC4)sc32)cc1 [Example 32] | 100 to 1000 nM
COc1ccc(Cn2c(=O)n3ncnc3c3cc(-c4c(C)noc4C)sc32)cc1 [Example 42] | 100 to 1000 nM
COc1ccc(Cn2c(=O)n3ncnc3c3c(C)c(CN4CCCC4)sc32)cc1 [Example 43, 6-(4-Methoxybenzyl)-9-methyl-8-(pyrrolidin-1-ylmethyl)thieno[3,2-e][1,2,4]triazolo[1,5-c]pyrimidin-5(6H)-one] | 100 to 1000 nM
COc1ccc(Cn2c(=O)n3ncnc3c3c(C)c(CN4CCNCC4)sc32)cc1 [Example 49] | 100 to 1000 nM
COc1ccc(Cn2c(=O)n3ncnc3c3c(C)c(CN4C[C@@H](C)N[C@@H](C)C4)sc32)cc1 [Example 72] | 100 to 1000 nM

Same assay, conditions: negative log of half-maximal molar inhibitory concentration; 200 nM FAM-cAMP, Calmodulin, CaCl2

Structure (SMILES) | PDE1B pIC50
O=c1n(Cc2ccc(-c3ccccc3)cc2)c2sccc2c2ncnn12 [Example 4] | <5
Cc1csc2c1c1ncnn1c(=O)n2Cc1ccc(-c2ccccc2)cc1 [Example 7] | <5
Cc1cc2c(s1)n(Cc1ccc(-c3ccccc3)cc1)c(=O)n1ncnc21 [Example 14] | <5
CC(C)CCc1cc2c(s1)n(Cc1ccc(-c3ccccc3)cc1)c(=O)n1ncnc21 [Example 21] | <5
COc1ccc(Cn2c(=O)n3ncnc3c3cc(CN4CCCOCC4)sc32)cc1 [Example 29, 8-((1,4-Oxazepan-4-yl)methyl)-6-(4-methoxybenzyl)thieno[3,2-e][1,2,4]triazolo[1,5-c]pyrimidin-5(6H)-one] | >7
COc1ccc(Cn2c(=O)n3ncnc3c3cc(CN4CCOCC4)sc32)cc1 [Example 31] | >7
COc1ccc(Cn2c(=O)n3ncnc3c3cc(CN4C[C@@H](C)O[C@@H](C)C4)sc32)cc1 [Example 33] | >7
CCN1CCN(Cc2cc3c(s2)n(Cc2ccc(OC)cc2)c(=O)n2ncnc32)CC1=O [Example 34] | >7
COc1ccc(Cn2c(=O)n3ncnc3c3cc(CN4CCN(S(C)(=O)=O)CC4)sc32)cc1 [Example 35] | >7
COc1ccc(Cn2c(=O)n3ncnc3c3cc(CN4CCOC(C)(C)C4)sc32)cc1 [Example 36] | >7
COc1ccc(Cn2c(=O)n3ncnc3c3cc(CN4CC5CC4CO5)sc32)cc1 (centres unmarked) [Example 37] | >7
COc1ccc(Cn2c(=O)n3ncnc3c3cc(CN4CC5(CCOCC5)C4)sc32)cc1 [Example 38] | >7
COc1ccc(Cn2c(=O)n3ncnc3c3cc(CN4CCC5(CC4)COC5)sc32)cc1 [Example 39] | >7
COc1ccc(Cn2c(=O)n3ncnc3c3cc(CN4CCN5C(=O)OCC5C4)sc32)cc1 (centres unmarked) [Example 40] | >7
COc1ccc(Cn2c(=O)n3ncnc3c3cc(-c4cc(C(F)(F)F)nn4C)sc32)cc1 [Example 41, 6-(4-Methoxybenzyl)-8-(1-methyl-3-(trifluoromethyl)-1H-pyrazol-5-yl)thieno[3,2-e][1,2,4]triazolo[1,5-c]pyrimidin-5(6H)-one] | >7
COc1ccc(Cn2c(=O)n3ncnc3c3c(C)c(CN4CCOCC4)sc32)cc1 [Example 44] | >7
COc1ccc(Cn2c(=O)n3ncnc3c3c(C)c(CN(C)C)sc32)cc1 [Example 45] | >7
COc1ccc(Cn2c(=O)n3ncnc3c3c(C)c(CN(C)C4CC4)sc32)cc1 [Example 46] | >7
COc1ccc(Cn2c(=O)n3ncnc3c3c(C)c(CN4CCC(O)CC4)sc32)cc1 [Example 47] | >7
COc1ccc(Cn2c(=O)n3ncnc3c3c(C)c(CN(CCO)Cc4ccccc4)sc32)cc1 [Example 48] | >7
COc1ccc(Cn2c(=O)n3ncnc3c3c(C)c(CNCC4(C)COC4)sc32)cc1 [Example 50] | >7

Structure (SMILES) | PDE1B pIC50
COc1ccc(Cn2c(=O)n3ncnc3c3c(C)c(CN4CCN(C(C)=O)CC4)sc32)cc1 [Example 51] | >7
COc1ccc(Cn2c(=O)n3ncnc3c3c(C)c(CNCc4cccnc4)sc32)cc1 [Example 52] | >7
COc1ccc(Cn2c(=O)n3ncnc3c3c(C)c(CN4CCNC(=O)C4)sc32)cc1 [Example 53] | >7
COc1ccc(Cn2c(=O)n3ncnc3c3c(C)c(CN(C)CC4CCCO4)sc32)cc1 (centres unmarked) [Example 54] | >7
COc1ccc(Cn2c(=O)n3ncnc3c3c(C)c(CN4C[C@@H](C)O[C@@H](C)C4)sc32)cc1 [Example 55] | >7
COc1ccc(Cn2c(=O)n3ncnc3c3c(C)c(CN4Cc5ccccc5C4)sc32)cc1 [Example 56] | >7
COc1ccc(Cn2c(=O)n3ncnc3c3c(C)c(CNC4CC4)sc32)cc1 [Example 57] | >7
COC[C@@H]1CCCN1Cc1sc2c(c1C)c1ncnn1c(=O)n2Cc1ccc(OC)cc1 [Example 58] | >7
COc1ccc(Cn2c(=O)n3ncnc3c3c(C)c(CN(C)CC4CCOC4)sc32)cc1 (centres unmarked) [Example 59] | >7
COc1ccc(Cn2c(=O)n3ncnc3c3c(C)c(CN4CCCOCC4)sc32)cc1 [Example 61] | >7
COc1ccc(Cn2c(=O)n3ncnc3c3c(C)c(CN4CCN(S(C)(=O)=O)CC4)sc32)cc1 [Example 63] | >7
COc1ccc(Cn2c(=O)n3ncnc3c3c(C)c(CN4CCN(C(C)C)CC4)sc32)cc1 [Example 64] | >7
COc1ccc(Cn2c(=O)n3ncnc3c3c(C)c(CN4CC5CC4CO5)sc32)cc1 (centres unmarked) [Example 65] | >7
CCN1CCN(Cc2sc3c(c2C)c2ncnn2c(=O)n3Cc2ccc(OC)cc2)CC1=O [Example 66] | >7
COc1ccc(Cn2c(=O)n3ncnc3c3c(C)c(CN4CC5CCC(C4)O5)sc32)cc1 [Example 67] | >7
CCC1CN(Cc2sc3c(c2C)c2ncnn2c(=O)n3Cc2ccc(OC)cc2)CCO1 (centres unmarked) [Example 68] | >7
COc1ccc(Cn2c(=O)n3ncnc3c3c(C)c(CN4CCOC(C)(C)C4)sc32)cc1 [Example 69] | >7
COc1ccc(Cn2c(=O)n3ncnc3c3c(C)c(CN4CCOC(C)C4)sc32)cc1 (centres unmarked) [Example 70] | >7
COc1ccc(Cn2c(=O)n3ncnc3c3c(C)c(CN4CCOCC4C)sc32)cc1 (centres unmarked) [Example 71] | >7
COc1ccc(Cn2c(=O)n3ncnc3c3c(C)c(CN4CCN(C)C(C)C4)sc32)cc1 (centres unmarked) [Example 73] | >7
